Reference: article PMC3542538 (Journal of medicinal chemistry, 2012)
“Also recorded” adds a separate entry of the source. Counter-ions that a name gives are not always drawn.

Tested on: single-stranded DNA substrate
Assay: Surface plasmon resonance binding to single-stranded DNA substrate
Settings: SPR

Compound | binding to the single-stranded DNA substrate
Cn1c2c(c3ccc(NC(=O)C(=O)O)cc3c1=O)C(=O)c1ccccc1-2 [Compound 14] | did not bind

Tested on: all human cancer cell lines successfully tested
Assay: cells
Settings: read-out: MGM (mean graph midpoint GI50)

Compound | GI50
COC(=O)C(=O)Nc1ccc2c3c(n(CCCN)c(=O)c2c1)-c1ccccc1C3=O [Compound 22, Methyl 2-[(6-(3-Aminopropyl)-5,11-dioxo-6,11-dihydro-5H-indeno[1,2-c]isoquinolin-3-yl)amino]-2-oxoacetate] | 1860 ± 380 nM
COC(=O)CC(=O)Nc1ccc2c3c(n(CCCN)c(=O)c2c1)-c1ccccc1C3=O [Compound 23, Methyl 3-[(6-(3-Aminopropyl)-5,11-dioxo-6,11-dihydro-5H-indeno[1,2-c]isoquinolin-3-yl)amino]-3-oxopropanoate] | 1860 nM
COC(=O)CCCC(=O)Nc1ccc2c3c(n(CCCN)c(=O)c2c1)-c1ccccc1C3=O [Compound 25, Methyl 5-[(6-(3-Aminopropyl)-5,11-dioxo-6,11-dihydro-5H-indeno[1,2-c]isoquinolin-3-yl)amino]-5-oxopentanoate] | 1090 nM
NCCCn1c2c(c3ccc(NCC(=O)O)cc3c1=O)C(=O)c1ccccc1-2 [Compound 43, 2-((6-(3-Aminopropyl)-5,11-dioxo-6,11-dihydro-5H-indeno[1,2-c]isoquinolin-3-yl)amino)acetic Acid Hydrochloride] | 870 ± 14 nM
COc1ccc2c(c1)-c1c(c3ccc([N+](=O)[O-])cc3c(=O)n1CCCN)C2=O [Compound 51, 6-(3-Aminopropyl)-5,6-dihydro-8-methoxy-3-nitro-5,11-dioxo-11H-indeno[1,2-c]isoquinoline Hydrochloride] | 170 ± 17 nM
COc1ccc2c(c1)-c1c(c3ccc([N+](=O)[O-])cc3c(=O)n1CCCn1ccnc1)C2=O [Compound 52, 6-(3-(1H-Imidazol-1-yl)propyl)-8-methoxy-3-nitro-5H-indeno[1,2-c]isoquinoline-5,11(6H)-dione] | 20 ± 0.6 nM
COc1ccc2c(c1)C(=O)c1c-2n(CCCN)c(=O)c2cc([N+](=O)[O-])ccc12 [Compound 54] | 20 ± 0.8 nM
NCCCn1c2c(c3ccc(N)cc3c1=O)C(=O)c1ccccc1-2 [Compound 62] | 160 nM
O=C1c2ccccc2-c2c1c1ccc([N+](=O)[O-])cc1c(=O)n2CCCO [Compound 63] | 890 ± 220 nM
CN(C)CCCn1c2c(c3ccc(C#N)cc3c1=O)C(=O)c1ccccc1-2 [Compound 74] | 300 ± 14 nM
COc1ccc2c(c1)C(=O)c1c-2n(CCCN)c(=O)c2cc(I)ccc12 [Compound 84, 6-(3-Aminopropyl)-5,6-dihydro-9-methoxy-3-iodo-5,11-dioxo-11H-indeno[1,2-c]isoquinoline] | 250 ± 4 nM
COc1ccc2c(c1)C(=O)c1c-2n(CCCN)c(=O)c2cc(N)ccc12 [Compound 89, 3-Amino-6-(3-aminopropyl)-5,6-dihydro-9-methoxy-5,11-dioxo-11H-indeno[1,2-c]isoquinoline Dihydrochloride] | 40 nM

Target: recombinant Tdp1 (Homo sapiens, UniProt Q9NUW8)
Sequence (Q9NUW8 whole entry): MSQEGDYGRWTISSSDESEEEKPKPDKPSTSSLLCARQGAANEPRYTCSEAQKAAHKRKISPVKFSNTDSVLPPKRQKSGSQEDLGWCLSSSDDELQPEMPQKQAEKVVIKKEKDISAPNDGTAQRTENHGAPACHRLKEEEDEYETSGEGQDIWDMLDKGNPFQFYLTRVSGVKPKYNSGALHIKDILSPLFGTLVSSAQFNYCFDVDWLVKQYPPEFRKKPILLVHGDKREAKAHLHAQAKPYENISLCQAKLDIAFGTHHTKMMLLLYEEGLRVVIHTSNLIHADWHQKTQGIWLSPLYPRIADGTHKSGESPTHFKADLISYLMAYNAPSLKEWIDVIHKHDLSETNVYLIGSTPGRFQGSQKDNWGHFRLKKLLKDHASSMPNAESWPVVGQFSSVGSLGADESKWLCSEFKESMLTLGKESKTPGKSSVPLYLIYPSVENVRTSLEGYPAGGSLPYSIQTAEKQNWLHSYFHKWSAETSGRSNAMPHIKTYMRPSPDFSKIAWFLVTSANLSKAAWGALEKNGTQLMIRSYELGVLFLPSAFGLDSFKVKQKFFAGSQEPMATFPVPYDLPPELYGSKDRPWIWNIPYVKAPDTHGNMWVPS
Assay: not given
Type: biochemical
Settings: not given

Compound | Tdp1 inhibitory activity (in words)
COC(=O)C(=O)Nc1ccc2c3c(n(C)c(=O)c2c1)-c1ccccc1C3=O [Compound 9, Methyl 2-[(6-Methyl-5,11-dioxo-6,11-dihydro-5H-indeno[1,2-c]isoquinolin-3-yl)amino]-2-oxoacetate] | inactive
Cn1c2c(c3ccc(NC(=O)CC(=O)O)cc3c1=O)C(=O)c1ccccc1-2 [Compound 15, 3-[(6-Methyl-5,11-dioxo-6,11-dihydro-5H-indeno[1,2-c]isoquinolin-3-yl)amino]-3-oxopropanoic Acid] | inactive
CC(C)(C)OC(=O)NCCCn1c2c(c3ccc(NC(=O)CCC(=O)O)cc3c1=O)C(=O)c1ccccc1-2 [Compound 29, 4-[(6-(3-((tert-Butoxycarbonyl)amino)propyl)-5,11-dioxo-6,11-dihydro-5H-indeno[1,2-c]isoquinolin-3-yl)amino]-4-oxobutanoic Acid] | weakly active
CC(C)(C)OC(=O)NCCCn1c2c(c3ccc(NC(=O)CCCC(=O)O)cc3c1=O)C(=O)c1ccccc1-2 [Compound 30, 5-[(6-(3-((tert-Butoxycarbonyl)amino)propyl)-5,11-dioxo-6,11-dihydro-5H-indeno[1,2-c]isoquinolin-3-yl)amino]-5-oxopentanoic Acid] | inactive
CC(C)(C)OC(=O)NCCCn1c2c(c3ccc(NC(=O)CCCCC(=O)O)cc3c1=O)C(=O)c1ccccc1-2 [Compound 31, 6-[(6-(3-((tert-Butoxycarbonyl)amino)propyl)-5,11-dioxo-6,11-dihydro-5H-indeno[1,2-c]isoquinolin-3-yl)amino]-6-oxohexanoic Acid] | weakly active
CCOC(=O)CNc1ccc2c3c(n(C)c(=O)c2c1)-c1ccccc1C3=O [Compound 38, Ethyl 2-[(6-Methyl-5,11-dioxo-6,11-dihydro-5H-indeno[1,2-c]isoquinolin-3-yl)amino]acetate] | inactivity; also recorded: inactive
CCOC(=O)CNc1ccc2c3c(n(CCCN)c(=O)c2c1)-c1ccccc1C3=O.Cl [Compound 40, Ethyl 2-[(6-(3-Aminopropyl)-5,11-dioxo-6,11-dihydro-5H-indeno[1,2-c]isoquinolin-3-yl)amino]acetate Hydrochloride] | active
Cn1c2c(c3ccc(NCC(=O)O)cc3c1=O)C(=O)c1ccccc1-2 [Compound 41, 2-[(6-Methyl-5,11-dioxo-6,11-dihydro-5H-indeno[1,2-c]isoquinolin-3-yl)amino]acetic Acid] | inactivity; also recorded: inactive
CC(C)(C)OC(=O)NCCCn1c2c(c3ccc(NCC(=O)O)cc3c1=O)C(=O)c1ccccc1-2 [Compound 42, 2-((6-(3-((tert-Butoxycarbonyl)amino)propyl)-5,11-dioxo-6,11-dihydro-5H-indeno[1,2-c]isoquinolin-3-yl)amino)acetic Acid] | inactivity
COc1ccc2c(c1)-c1c(c3ccc([N+](=O)[O-])cc3c(=O)n1CCCBr)C2=O [Compound 49, 6-(3-Bromopropyl)-5,6-dihydro-8-methoxy-3-nitro-5,11-dioxo-11H-indeno[1,2-c]isoquinoline] | very weak or inactive
COc1ccc2c(c1)-c1c(c3ccc([N+](=O)[O-])cc3c(=O)n1CCCN=[N+]=[N-])C2=O [Compound 50, 6-(3-Azidopropyl)-5,6-dihydro-8-methoxy-3-nitro-5,11-dioxo-11H-indeno[1,2-c]isoquinoline] | very weak or inactive
COc1ccc2c(c1)-c1c(c3ccc([N+](=O)[O-])cc3c(=O)n1CCCn1ccnc1)C2=O [Compound 52, 6-(3-(1H-Imidazol-1-yl)propyl)-8-methoxy-3-nitro-5H-indeno[1,2-c]isoquinoline-5,11(6H)-dione] | very weak or inactive
COc1ccc2c(c1)-c1c(c3ccc([N+](=O)[O-])cc3c(=O)n1CCCN1CCOCC1)C2=O [Compound 53, 8-Methoxy-6-(3-morpholinopropyl)-3-nitro-5H-indeno[1,2-c]isoquinoline-5,11(6H)-dione] | very weak or inactive

Target: T1, recombinant human Top1 (Homo sapiens, UniProt P11387)
T1 sequence (P11387 1-765): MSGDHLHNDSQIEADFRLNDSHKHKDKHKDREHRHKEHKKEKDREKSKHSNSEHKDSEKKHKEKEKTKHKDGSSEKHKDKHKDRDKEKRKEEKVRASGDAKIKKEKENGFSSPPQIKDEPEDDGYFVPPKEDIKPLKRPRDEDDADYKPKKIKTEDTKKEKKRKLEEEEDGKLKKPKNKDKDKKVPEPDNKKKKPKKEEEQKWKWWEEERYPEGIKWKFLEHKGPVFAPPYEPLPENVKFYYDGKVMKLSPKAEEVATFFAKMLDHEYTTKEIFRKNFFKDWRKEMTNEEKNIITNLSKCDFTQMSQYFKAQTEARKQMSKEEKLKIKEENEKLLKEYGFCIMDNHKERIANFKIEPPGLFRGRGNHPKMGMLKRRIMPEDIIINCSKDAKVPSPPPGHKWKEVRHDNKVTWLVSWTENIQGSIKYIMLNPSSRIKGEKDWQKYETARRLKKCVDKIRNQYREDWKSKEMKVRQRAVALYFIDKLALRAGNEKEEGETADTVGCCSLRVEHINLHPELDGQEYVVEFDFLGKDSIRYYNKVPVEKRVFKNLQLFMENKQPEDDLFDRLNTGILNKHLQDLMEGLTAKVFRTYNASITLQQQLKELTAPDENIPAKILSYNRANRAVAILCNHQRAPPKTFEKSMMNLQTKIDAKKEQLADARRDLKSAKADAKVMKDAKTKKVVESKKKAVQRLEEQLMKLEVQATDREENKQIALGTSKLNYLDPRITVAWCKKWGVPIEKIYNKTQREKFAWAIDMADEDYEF
Assay: Topoisomerase I-mediated DNA cleavage reactions
Type: biochemical
Settings: 100 μM

Compound | suppression of Top1-mediated DNA cleavage at high drug concentration
COc1ccc2c(c1)-c1c(c3ccc([N+](=O)[O-])cc3c(=O)n1CCCn1ccnc1)C2=O [Compound 52, 6-(3-(1H-Imidazol-1-yl)propyl)-8-methoxy-3-nitro-5H-indeno[1,2-c]isoquinoline-5,11(6H)-dione] | slight suppression; also recorded: does not
COc1ccc2c(c1)C(=O)c1c-2n(CCCN(C)C)c(=O)c2cc(I)ccc12 [Compound 85, 3-Iodo-9-methoxy-6-(3-(Dimethylamino)propyl)-5H-indeno[1,2-c]isoquinoline-5,11(6H)-dione] | complete suppression; also recorded: suppress
